Earlier results, collected in PMC4141160, “Peptide Inhibitor of Complement C1, a Novel Suppressor of Classical Pathway Activation: Mechanistic Studies and Clinical Potential” (Frontiers in Immunology, 2014).

Assays:
[1] = test system: transfused human RBCs; parameters: method as in PMID 12576307; settings: mouse
[2] = test system: C1
[3] = test system: C1q; parameters: method as in PMID 20728940
[4] = test system: classical pathway
[5] = target: purified C1q; parameters: method as in PMID 22906481; settings: surface plasmon resonance, read-out: mean equilibrium dissociation constant (KD)
[6] = test system: CLR of C1q; settings: ELISA
[7] = test system: alternative pathway
[8] = test system: C4a; settings: single i.v. injection at 30 mg/kg; ELISA

## sCR1: soluble complement receptor 1
[1]
  hemolysis and C3 and C4 deposition on transfused human RBCs: temporarily inhibit hemolysis as well as C3 and C4 deposition

## PAICQRATATLGTVGSNTSGTTEIEACILL [CPP1, 30-residue PIC1 derivative from the HNP-1 homology region of astrovirus CP]
[2]
  inhibition of C1 activation, as assayed by C1s cleavage: inhibited C1 activation
[3]
  inhibition of the binding of CP to C1q: inhibited the binding of CP to C1q
[4]
  Classical pathway inhibition values using 0.77 mM peptide: 50%

## IALILEPICCQERAA [PA]
[4]
  Classical pathway inhibition values using 0.77 mM peptide: 85%
[5]
  Kd: 33.3 nM
[6]
  binding to the CLR of C1q: specifically bind to the CLR of C1q

## PAICQRAEIEACILL [Δ8–22, CPP1 with central region removed, functional peptide of 15 residues]
[7]
  effect on the alternative pathway: minimal effect
[4]
  Classical pathway inhibition values using 0.77 mM peptide: 70%

B1: TNT009: humanized monoclonal analog of TNT003 (antibody, chains of the INN, looked up, V domains shown)
VH: EVQLVESGGGLVKPGGSLRLSCAASGFTFSNYAMSWVRQAPGKGLEWVATISSGGSHTYYLDSVKGRFTISRDNSKNTLYLQMNSLRAEDTALYYCARLFTGYAMDYWGQGTLVTVSS
VL: QIVLTQSPATLSLSPGERATMSCTASSSVSSSYLHWYQQKPGKAPKLWIYSTSNLASGVPSRFSGSGSGTDYTLTISSLQPEDFATYYCHQYYRLPPITFGQGTKLEIK
[8]
  in vivo generation of C4a: inhibited the in vivo generation of C4a
